Target: T1, BACE 1 (Homo sapiens, UniProt P56817)
T1 construct: soluble (transmembrane domain and cytoplasmic extension excluded) human protein; made in house; host or cells: baculovirus expression system (insect cells implied)
Experiment: ECL Assay: homogeneous end point electrochemiluminescence assay with biotinylated BACE substrate
Assay type: biochemical
Conditions: soluble human enzyme, pH 6.5
Procedure: Enzyme inhibition is determined as follows.
ECL Assay: A homogeneous end point electrochemiluminescence (ECL) assay is performed using a biotinylated BACE substrate. […] A typical reaction contains approximately 0.6 nM enzyme, 0.25 μM of the substrate, and buffer (50 mM Pipes, pH 6.5, 0.1 mg/ml BSA, 0.2% CHAPS, 15 mM EDTA and 1 mM deferoxamine) in a total reaction volume of 100 μl. […] To measure the inhibitory potency for compounds, 10 concentrations of inhibitors are prepared starting from 200 μM with three fold series dilution. Solutions of the inhibitor in DMSO are included in the reaction mixture (final DMSO concentration is 10%). All experiments are conducted at […] using the standard reaction conditions described above. To determine the IC50 of the compound, a four parameter equation is used for curve fitting.

T1 sequence (P56817 46-457 limits assumed): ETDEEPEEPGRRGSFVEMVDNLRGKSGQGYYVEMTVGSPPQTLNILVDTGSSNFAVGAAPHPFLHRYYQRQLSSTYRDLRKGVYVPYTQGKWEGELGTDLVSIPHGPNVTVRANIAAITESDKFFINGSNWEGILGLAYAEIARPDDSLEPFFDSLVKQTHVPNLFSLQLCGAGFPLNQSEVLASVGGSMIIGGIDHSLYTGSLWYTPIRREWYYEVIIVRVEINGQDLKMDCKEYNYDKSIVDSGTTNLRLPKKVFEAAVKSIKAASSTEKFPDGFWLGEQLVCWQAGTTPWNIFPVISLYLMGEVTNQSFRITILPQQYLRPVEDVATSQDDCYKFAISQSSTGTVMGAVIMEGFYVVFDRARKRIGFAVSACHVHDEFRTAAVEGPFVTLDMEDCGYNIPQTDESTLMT

| IC50 [µM] | Compound |
| --- | --- |
| 67 | O=C([C@@H]1CNC[C@H]1c1ccccc1Br)N1CCCC1Cc1ccccc1 (stereo partly drawn) [Example 8, 2-benzyl-1-{[(3S,4R)-4-(2-bromophenyl)pyrrolidin-3-yl]carbonyl}pyrrolidine] |
| 18 | CCOc1ccc(-c2ccccc2[C@@H]2CNC[C@H]2C(=O)N2CCOC[C@@H]2c2ccccc2)cc1 [Example 12] |
| 19 | O=C([C@@H]1CNC[C@H]1c1ccccc1Br)N1CCC2(C=Cc3ccccc32)CC1 [Example 38, 1-{[(3S,4R)-4-(2-bromophenyl)pyrrolidin-3-yl]carbonyl}spiro[indene-1,4′-piperidine]] |
| 3 | CS(=O)(=O)c1ccc(-c2ccccc2[C@@H]2CNC[C@H]2C(=O)N2CCC3(C=Cc4ccccc43)CC2)cc1 [Example 64] |
| 3.5 | CS(=O)(=O)c1ccc(-c2ccccc2[C@@H]2CNC[C@H]2C(=O)N2CCC(c3ccccc3)CC2c2ccccc2)cc1 (stereo partly drawn) [Example 76, 1-({(3S,4R)-4-[4′-(methylsulfonyl)biphenyl-2-yl]pyrrolidin-3-yl}carbonyl)-2,4-diphenylpiperidine] |
| 1.8 | O=C([C@@H]1CNC[C@H]1c1ccccc1Br)N1CCC2(C=Cc3ccccc32)CC1c1ccccc1 (stereo partly drawn) [Example 79, 1′-{[(3S,4R)-4-(2-bromophenyl)pyrrolidin-3-yl]carbonyl}-2′-phenylspiro[indene-1,4′-piperidine]] |
| 0.38 | CS(=O)(=O)c1ccc(-c2ccccc2[C@@H]2CNC[C@H]2C(=O)N2CCC3(C=Cc4ccccc43)CC2c2ccccc2)cc1 (stereo partly drawn) [Example 83, 1′-({(3S,4R)-4-(4′-(methylsulfonyl)biphenyl-2-yl]pyrrolidin-3-yl}carbonyl)-2′-phenylspiro-[indene-1,4′-piperidine]] |

From patent US8354545B2, “3,4-substituted pyrrolidine beta-secretase inhibitors for the treatment of alzheimer's disease” (Merck, Sharp & Dohme, Corp., priority 2007, dated 2013)
